“Also recorded” adds a separate entry of the source.
Assays:
LNCaP cells = experiment: Internalization into LNCaP cells; format: cell-based, human; conditions: 100 nM, 0–2 hours
[1] = test system: NCr nude mice bearing LNCaP xenografts; experiment: Mouse tissue distribution, LNCaP xenografts; format: in vivo; conditions: for Ratio Tumor:Blood / Ratio Tumor:Skeletal Muscle: ratio based on the %ID/g
[2] = test system: NCr-nu/nu mice bearing PC3 xenografts; experiment: Mouse tissue distribution, PC3 xenografts; format: in vivo; conditions: PSMA deficient PC3 xenografts
[3] = test system: mice bearing LNCaP xenografts; experiment: SPECT/CT imaging, LNCaP xenografts; format: in vivo, mouse; conditions: 4 hr after injection
[4] = Stability in liver microsomes; format: in vitro ADME; conditions: data not shown
[5] = Stability in blood plasma; format: in vitro ADME; conditions: data not shown
PC3 PIP (PSMA +) tumors = conditions: mouse, in vivo
[6] = test system: PC3 cells (PSMA negative); experiment: Direct binding to PC3 cells; conditions: 3 nM radioligand, 1 hour; PC3 cells lack PSMA
[7] = molecular target: LNCaP cells (PSMA positive) (Homo sapiens, UniProt Q04609); experiment: Direct binding to LNCaP cells
[8] = co-injected with 50 mg/kg PMPA, 2 hours

LNCaP cells (PSMA positive), sequence (Q04609 whole entry): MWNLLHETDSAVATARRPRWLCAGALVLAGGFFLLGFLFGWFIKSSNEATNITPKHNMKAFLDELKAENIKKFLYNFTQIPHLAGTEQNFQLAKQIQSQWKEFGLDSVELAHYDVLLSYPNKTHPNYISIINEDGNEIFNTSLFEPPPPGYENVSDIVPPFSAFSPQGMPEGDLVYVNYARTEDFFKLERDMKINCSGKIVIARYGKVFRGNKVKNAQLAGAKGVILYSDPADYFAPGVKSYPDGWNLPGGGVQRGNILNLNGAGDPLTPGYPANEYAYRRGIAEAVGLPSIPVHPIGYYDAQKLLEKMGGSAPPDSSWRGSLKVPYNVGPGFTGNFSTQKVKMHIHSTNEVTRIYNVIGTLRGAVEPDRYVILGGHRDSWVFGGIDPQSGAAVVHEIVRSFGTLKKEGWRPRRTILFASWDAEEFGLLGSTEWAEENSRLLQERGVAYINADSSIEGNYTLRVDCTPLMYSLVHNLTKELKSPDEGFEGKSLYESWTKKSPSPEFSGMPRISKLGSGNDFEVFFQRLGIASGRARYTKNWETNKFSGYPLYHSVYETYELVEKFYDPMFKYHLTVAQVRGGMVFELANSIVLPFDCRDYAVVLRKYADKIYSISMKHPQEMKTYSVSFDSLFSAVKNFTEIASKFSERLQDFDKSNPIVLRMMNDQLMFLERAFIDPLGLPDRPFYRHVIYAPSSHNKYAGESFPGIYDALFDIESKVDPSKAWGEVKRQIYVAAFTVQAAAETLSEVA

O=C(O)CC[C@H](NC(=O)N[C@@H](CCCCNCc1ccc(I)cc1)C(=O)O)C(=O)O [[^123I]MIP-1072, (S)-2-(3-((S)-1-carboxy-5-(4–iodobenzylamino)pentyl)ureido)pentanedioic acid]
Internalization into LNCaP cells (LNCaP cells; 4 °C): but not at 4 °C | Internalization into LNCaP cells (LNCaP cells; 37 °C): internalized; also recorded: time dependent increase in radioactivity associated with the cellular pellet | Tissue distribution: Adipose ([1]; 0.25 hr after injection): 1.45 ± 0.27 %ID/g | Tissue distribution: Blood ([1]; 0.25 hr after injection): 2.59 ± 0.24 %ID/g | Tissue distribution: Bone ([1]; 0.25 hr after injection): 0.69 ± 0.15 %ID/g | Tissue distribution: Brain ([1]; 0.25 hr after injection): 0.08 ± 0.02 %ID/g | Tissue distribution: Heart ([1]; 0.25 hr after injection): 1.25 ± 0.22 %ID/g | Tissue distribution: Kidneys ([1]; 0.25 hr after injection): 90.1 ± 20.2 %ID/g | Tissue distribution: Lg Intestine ([1]; 0.25 hr after injection): 0.41 ± 0.08 %ID/g | Tissue distribution: Liver ([1]; 0.25 hr after injection): 2.26 ± 0.56 %ID/g | Tissue distribution: Lungs ([1]; 0.25 hr after injection): 2.34 ± 0.61 %ID/g | Tissue distribution: Sk.Muscle ([1]; 0.25 hr after injection): 0.8 ± 0.18 %ID/g | Tissue distribution: Sm Intestine ([1]; 0.25 hr after injection): 0.83 ± 0.1 %ID/g | Tissue distribution: Spleen ([1]; 0.25 hr after injection): 4.28 ± 1.67 %ID/g | Tissue distribution: Stomach ([1]; 0.25 hr after injection): 0.69 ± 0.17 %ID/g | Tissue distribution: Testes ([1]; 0.25 hr after injection): 0.91 ± 0.24 %ID/g | Tissue distribution: Tumor (LNCaP xenograft) ([1]; 0.25 hr after injection): 12.9 ± 3.3 %ID/g | Ratio Tumor:Blood ([1]; 0.25 hr): 4.97 | Ratio Tumor:Skeletal Muscle ([1]; 0.25 hr): 16.2 | Tissue distribution: Adipose ([1]; 1 hr after injection): 0.74 ± 0.28 %ID/g | Tissue distribution: Blood ([1]; 1 hr after injection): 0.47 ± 0.15 %ID/g | Tissue distribution: Bone ([1]; 1 hr after injection): 0.25 ± 0.07 %ID/g | Tissue distribution: Brain ([1]; 1 hr after injection): 0.04 ± 0.01 %ID/g | Tissue distribution: Heart ([1]; 1 hr after injection): 0.31 ± 0.08 %ID/g | Tissue distribution: Kidneys ([1]; 1 hr after injection): 151 ± 26 %ID/g | Tissue distribution: Lg Intestine ([1]; 1 hr after injection): 0.15 ± 0.04 %ID/g | Tissue distribution: Liver ([1]; 1 hr after injection): 2.22 ± 0.43 %ID/g | Tissue distribution: Lungs ([1]; 1 hr after injection): 0.86 ± 0.24 %ID/g | Tissue distribution: Sk.Muscle ([1]; 1 hr after injection): 0.35 ± 0.17 %ID/g | Tissue distribution: Sm Intestine ([1]; 1 hr after injection): 0.41 ± 0.12 %ID/g | Tissue distribution: Spleen ([1]; 1 hr after injection): 1.91 ± 0.85 %ID/g | Tissue distribution: Stomach ([1]; 1 hr after injection): 0.26 ± 0.03 %ID/g | Tissue distribution: Testes ([1]; 1 hr after injection): 0.58 ± 0.19 %ID/g | Tissue distribution: Tumor (LNCaP xenograft) ([1]; 1 hr after injection): 17.4 ± 6.3 %ID/g | Ratio Tumor:Blood ([1]; 1 hr): 37.1 | Ratio Tumor:Skeletal Muscle ([1]; 1 hr): 50.0 | Tissue distribution: Adipose ([1]; 2 hr after injection): 0.46 ± 0.27 %ID/g | Tissue distribution: Blood ([1]; 2 hr after injection): 0.21 ± 0.04 %ID/g | Tissue distribution: Bone ([1]; 2 hr after injection): 0.17 ± 0.08 %ID/g | Tissue distribution: Brain ([1]; 2 hr after injection): 0.04 ± 0.01 %ID/g | Tissue distribution: Heart ([1]; 2 hr after injection): 0.19 ± 0.07 %ID/g | Tissue distribution: Kidneys ([1]; 2 hr after injection): 159 ± 46 %ID/g | Tissue distribution: Lg Intestine ([1]; 2 hr after injection): 0.28 ± 0.12 %ID/g | Tissue distribution: Liver ([1]; 2 hr after injection): 2.84 ± 0.63 %ID/g | Tissue distribution: Lungs ([1]; 2 hr after injection): 0.4 ± 0.19 %ID/g | Tissue distribution: Sk.Muscle ([1]; 2 hr after injection): 0.2 ± 0.1 %ID/g | Tissue distribution: Sm Intestine ([1]; 2 hr after injection): 0.35 ± 0.1 %ID/g | Tissue distribution: Spleen ([1]; 2 hr after injection): 0.75 ± 0.36 %ID/g | Tissue distribution: Stomach ([1]; 2 hr after injection): 0.21 ± 0.06 %ID/g | Tissue distribution: Testes ([1]; 2 hr after injection): 0.43 ± 0.16 %ID/g | Tissue distribution: Tumor (LNCaP xenograft) ([1]; 2 hr after injection): 14.0 ± 6.9 %ID/g | Ratio Tumor:Blood ([1]; 2 hr): 65.4 | Ratio Tumor:Skeletal Muscle ([1]; 2 hr): 70.2 | Tissue distribution: Adipose ([1]; 4 hr after injection): 0.12 ± 0.16 %ID/g | Tissue distribution: Bone ([1]; 4 hr after injection): 0.1 ± 0.18 %ID/g | Tissue distribution: Heart ([1]; 4 hr after injection): 0.01 ± 0.02 %ID/g | Tissue distribution: Kidneys ([1]; 4 hr after injection): 35.8 ± 18.7 %ID/g | Tissue distribution: Lg Intestine ([1]; 4 hr after injection): 0.48 ± 0.13 %ID/g | Tissue distribution: Liver ([1]; 4 hr after injection): 2.17 ± 0.67 %ID/g | Tissue distribution: Lungs ([1]; 4 hr after injection): 0.08 ± 0.04 %ID/g | Tissue distribution: Sk.Muscle ([1]; 4 hr after injection): 0.08 ± 0.1 %ID/g | Tissue distribution: Sm Intestine ([1]; 4 hr after injection): 0.24 ± 0.07 %ID/g | Tissue distribution: Spleen ([1]; 4 hr after injection): 0.16 ± 0.12 %ID/g | Tissue distribution: Stomach ([1]; 4 hr after injection): 0.11 ± 0.05 %ID/g | Tissue distribution: Testes ([1]; 4 hr after injection): 0.26 ± 0.17 %ID/g | Tissue distribution: Tumor (LNCaP xenograft) ([1]; 4 hr after injection): 13.7 ± 3.1 %ID/g | Ratio Tumor:Blood ([1]; 4 hr): 220 | Ratio Tumor:Skeletal Muscle ([1]; 4 hr): 182 | Tissue distribution: Adipose ([1]; 8 hr after injection): 0.04 ± 0.11 %ID/g | Tissue distribution: Blood ([1]; 8 hr after injection): 0.06 ± 0.03 %ID/g | Tissue distribution: Bone ([1]; 8 hr after injection): 0.04 ± 0.04 %ID/g | Tissue distribution: Brain ([1]; 8 hr after injection): 0.02 ± 0.01 %ID/g | Tissue distribution: Heart ([1]; 8 hr after injection): 0.05 ± 0.04 %ID/g | Tissue distribution: Kidneys ([1]; 8 hr after injection): 21.5 ± 25.5 %ID/g | Tissue distribution: Lg Intestine ([1]; 8 hr after injection): 0.72 ± 0.22 %ID/g | Tissue distribution: Liver ([1]; 8 hr after injection): 1.78 ± 0.4 %ID/g | Tissue distribution: Lungs ([1]; 8 hr after injection): 0.06 ± 0.03 %ID/g | Tissue distribution: Sk.Muscle ([1]; 8 hr after injection): 0.02 ± 0.04 %ID/g | Tissue distribution: Sm Intestine ([1]; 8 hr after injection): 0.27 ± 0.06 %ID/g | Tissue distribution: Spleen ([1]; 8 hr after injection): 0.18 ± 0.11 %ID/g | Tissue distribution: Stomach ([1]; 8 hr after injection): 0.21 ± 0.08 %ID/g | Tissue distribution: Testes ([1]; 8 hr after injection): 0.18 ± 0.14 %ID/g | Tissue distribution: Tumor (LNCaP xenograft) ([1]; 8 hr after injection): 9.74 ± 3.48 %ID/g | Ratio Tumor:Blood ([1]; 8 hr): 176 | Ratio Tumor:Skeletal Muscle ([1]; 8 hr): 446 | Tissue distribution: Adipose ([1]; 24 hr after injection): 0.01 ± 0.11 %ID/g | Tissue distribution: Blood ([1]; 24 hr after injection): 0.01 ± 0 %ID/g | Tissue distribution: Bone ([1]; 24 hr after injection): 0.03 ± 0.05 %ID/g | Tissue distribution: Brain ([1]; 24 hr after injection): 0.02 ± 0.01 %ID/g | Tissue distribution: Heart ([1]; 24 hr after injection): 0.01 ± 0.05 %ID/g | Tissue distribution: Kidneys ([1]; 24 hr after injection): 1.1 ± 0.6 %ID/g | Tissue distribution: Lg Intestine ([1]; 24 hr after injection): 0.37 ± 0.18 %ID/g | Tissue distribution: Liver ([1]; 24 hr after injection): 0.29 ± 0.05 %ID/g | Tissue distribution: Lungs ([1]; 24 hr after injection): 0.05 ± 0.06 %ID/g | Tissue distribution: Sk.Muscle ([1]; 24 hr after injection): 0.08 ± 0.04 %ID/g | Tissue distribution: Sm Intestine ([1]; 24 hr after injection): 0.07 ± 0.02 %ID/g | Tissue distribution: Spleen ([1]; 24 hr after injection): 0.14 ± 0.1 %ID/g | Tissue distribution: Stomach ([1]; 24 hr after injection): 0.11 ± 0.05 %ID/g | Tissue distribution: Testes ([1]; 24 hr after injection): 0.05 ± 0.04 %ID/g | Tissue distribution: Tumor (LNCaP xenograft) ([1]; 24 hr after injection): 5.03 ± 1.35 %ID/g | Ratio Tumor:Blood ([1]; 24 hr): 411 | Ratio Tumor:Skeletal Muscle ([1]; 24 hr): 64.5 | tumor:blood ratio ([1]; after only a few hours): > 100 | tumor:skeletal muscle ratio ([1]; after only a few hours): > 100 | Thyroid content (deiodination) ([1]; all time points): < 1 % of the total injected dose | Binding to LNCaP tumor xenografts with co-injected PMPA [1, 8]: blocked | Binding to kidneys with co-injected PMPA [1, 8]: blocked | Blood-brain barrier crossing ([1]; from little uptake in the brain): do not cross the blood-brain barrier | Route of clearance ([1]; mouse, in vivo): primarily through urinary excretion | Localization to PC3 tumors [2]: not to the PSMA deficient PC3 tumors | SPECT/CT uptake in kidney and LNCaP tumor [3]: high uptake | Stability in liver microsomes [4]: stable | Stability in blood plasma [5]: stable | SPECT/CT detection of PC3 PIP (PSMA +) tumors (PC3 PIP (PSMA +) tumors): detected | Binding to PC3 cells [6]: no binding; also recorded: not to the PSMA deficient PC3 cells | Binding to LNCaP cells in the presence of non-radiolabeled compound or PMPA ([7]; 3 nM radioligand with 10 µM non-radiolabeled compound or 10 µM PMPA): abolished; also recorded: inhibited | Binding to LNCaP cells ([7]; 3 nM radioligand, 1 hour, room temperature): bound

Source: publication PMC4114247 (Cancer research, 2009)
